Columns and labels:
XP144 TGs = assay: Tumorgraft growth in different hosts, mixed-model analysis, XP144; format: in vivo, mice
Procedure: (§1) Tumor samples were collected from patients under IRB-approved protocol as previously described. 6-to-8-week-old NOD/SCID mice originally obtained from the UT Southwestern Breeding Core were implanted subcutaneously with patient-derived TGs. Calipers were used to measure tumor dimensions. Volume was calculated by multiplying width, length, and height, thereby minimizing the potential bias of disproportionately weighing one particular dimension (at the cost of overestimating tumor volumes). […] Tumors were measured weekly. As indicated, vehicle-treated tumors and rapamycin-sensitive tumors were harvested around 28 days. […] In accordance with UT Southwestern Institutional Animal Care and Use Committee policies, animals were euthanized once tumor diameters were larger than 2 cm.
(§2) Bar charts and series plots are presented as the mean±standard error of the mean (SEM) from more than three independent experiments. Unless otherwise indicated, the statistical significance was determined by t-test using GraphPad Prism. For each XP line, ANOVA with post-hoc t-tests were used to test for differential (phospho)protein levels between the three arms in the RPPA analysis (vehicle-treated, rapamycin-sensitive, and rapamycin-resistant) with FDR-adjusted P-values. For the mixed model analysis, data were summarized as mean tumor growth per day with 95% confidence intervals, as well as by fold change between groups. A positive fold change indicates increased tumor growth rates in the first group compared to the second. Estimates were obtained from a three-way factorial mixed model analysis for treatment group, mouse type, and day of measurement. Baseline volume was also included as a term in the model to control for differences in starting volumes. An autoregressive (AR-1) covariance structure was used to account for the correlation among repeated measurements for each mouse. ANOVA and mixed model analyses were completed using SAS 9.4. A P-value <0.05 was considered significant.
(§3) XP144, XP164 and XP490 were then implanted into NOD/SCID^mTOR-ST mice.
(§4) The mTOR-ST mutation had the least effect on XP490. […] In Table 4, data are summarized with mean tumor growth rates per day (95% confidence intervals) with fold change between the two groups. A positive fold change indicates increased tumor growth rates in the first group. mTOR-WT, wild type mice; mTORST, heterozygous mTOR-ST mice; mTORST/ST, homozygous mTOR-ST mice. Rapa, rapamycin-treatment; Veh, vehicle-treatment

XP164 TGs = assay: Tumorgraft growth in different hosts, mixed-model analysis, XP164; format: in vivo, mice
Procedure: as §1, §2, §3, §4

XP490 TGs = assay: Tumorgraft growth in different hosts, mixed-model analysis, XP490; format: in vivo, mice
Procedure: as §1, with “weekly.” for “weekly. As indicated, vehicle-treated tumors and rapamycin-sensitive tumors were harvested around 28 days.”
as §2, with “For each XP line, ANOVA with post-hoc t-tests were used to test for differential (phospho)protein levels between the three arms in the RPPA analysis (vehicle-treated, rapamycin-sensitive, and rapamycin-resistant) with FDR-adjusted P-values.” left out
as §3
A positive fold change indicates increased tumor growth rates in the first group. mTOR-WT, wild type mice; mTORST, heterozygous mTOR-ST mice; mTORST/ST, homozygous mTOR-ST mice.

[1] = following temsirolimus administration in patients; cited from earlier work

For `CO[C@H]1C[C@@H]2CC[C@@H](C)[C@@](O)(O2)C(=O)C(=O)N2CCCC[C@H]2C(=O)O[C@H]([C@H](C)C[C@@H]2CC[C@@H](O)[C@H](OC)C2)CC(=O)[C@H](C)/C=C(\C)[C@@H](O)[C@@H](OC)C(=O)[C@H](C)C[C@H](C)/C=C/C=C/C=C/1C` [rapamycin], the “effect on tumor growth” value (XP144 TGs; XP144, NOD/SCID^mTOR-ST mice) was “no significant effect”, the “Mean tumor growth per day (95% CI)” value (XP144 TGs; XP144, mTOR^ST (heterozygous) mice) was 54.6 (36.8, 72.4) vs and the “Mean tumor growth per day (95% CI)” value (XP144 TGs; XP144, mTOR^WT mice, rapamycin 0.5 mg/kg IP every 48 hours) was 20.4 (10.5, 30.3) vs. The “reduction of tumor growth” value (XP144 TGs; XP144, wild-type mice, vs vehicle) was 1.5 fold, the “effect on tumor growth” value (XP164 TGs; XP164, NOD/SCID^mTOR-ST mice) was “no significant effect” and the “Mean tumor growth per day (95% CI)” value (XP164 TGs; XP164, mTOR^ST (heterozygous) mice) was 67.6 (57.2, 78.0) vs. The “Mean tumor growth per day (95% CI)” value (XP164 TGs; XP164, mTOR^ST/ST (homozygous) mice) was 69.5 (58.5, 80.6) vs, the “Mean tumor growth per day (95% CI)” value (XP164 TGs; XP164, mTOR^WT mice) was 18.3 (12.6, 24.0) vs and the “delay of tumor growth” value (XP164 TGs; XP164, wild-type mice, vs vehicle) was 3.7 fold. For the same compound, the “inhibition of tumor growth” value (XP490 TGs; XP490, mTOR-ST homozygous mice) was 2 fold, the “Mean tumor growth per day (95% CI)” value (XP490 TGs; XP490, mTOR^ST (heterozygous) mice) was 15.0 (11.7, 18.3) vs and the “Mean tumor growth per day (95% CI)” value (XP490 TGs; XP490, mTOR^WT mice) was 5.1 (1.1, 9.1) vs. For the same compound, the “inhibition of tumor growth” value (XP490 TGs; XP490, mice with the resistance mutation (heterozygous mTOR-ST)) was 6 fold, the “reduction of tumor growth” value (XP490 TGs; XP490, wild-type mice, vs vehicle) was 11 fold and the “reduction of tumor growth inhibition in the resistant host” value (XP490 TGs; third TG line, resistant host vs wild type) was ≤ 5 fold. For the same compound, the “share of the circulating drug” value [1] was 70%.

Source: US20250325528A1, “[…] ROLE OF mTORC1 INHIBITION OF NON-TUMOR CELLS” (THE BOARD OF REGENTS OF THE UNIVERSITY OF TEXAS SYSTEM, priority 2024, published 2025)
